Data from patent US12077503B2, “Substituted cyclic amides and their use as herbicides” (FMC CORPORATION, priority 2015, dated 2024).

Key:
Type in all cases: in vivo
[1] = tested on: barnyardgrass (Echinochloa crus-galli); experiment: Test G Post-Emergence Protocol
Protocol: (§1) Seeds of corn (Zea mays), giant foxtail (Setaria faberi), barnyardgrass (Echinochloa crus-galli), ivy-leaved morning glory (Ipomoea hederacea), redroot pigweed (Amaranthus retroflexus) and velvetleaf (Abutilon theophrasti) were sown in standard soil in pots. After cultivation for 8 days under controlled conditions in a glasshouse (at 24/16° C., day/night; 14 hours light; 65% humidity), the plants were sprayed with an aqueous spray solution derived from the formulation of the technical active ingredient in acetone/water (50:50) solution containing 0.5% Tween 20 (polyoxyethylene sorbitan monolaurate, CAS RN 9005-64-5) to give a final dose of 15.625, 62.5 or 250 g/ha of test compound.
(§2) The test plants were then grown on under controlled conditions in a glasshouse (at 24/16° C., day/night; 14 hours light; 65% humidity) and watered twice daily. After 13 days the test was evaluated (100=total damage to plant; 0=no damage to plant). A dash (-) means no test result.

corn (Zea mays) [2] = experiment: Test G Post-Emergence Protocol
Protocol: as §1, §2

[3] = tested on: redroot pigweed (Amaranthus retroflexus); experiment: Test G Post-Emergence Protocol
Protocol: as §1, §2

[4] = tested on: giant foxtail (Setaria faberi); experiment: Test G Post-Emergence Protocol
Protocol: as §1, §2

[5] = tested on: ivy-leaved morning glory (Ipomoea hederacea); experiment: Test G Post-Emergence Protocol
Protocol: as §1, §2

[6] = tested on: velvetleaf (Abutilon theophrasti); experiment: Test G Post-Emergence Protocol
Protocol: as §1, §2

[7] = tested on: barnyardgrass (Echinochloa crus-galli); experiment: Test G Pre-Emergence Protocol; conditions: evaluated after 13 days
Protocol: as §1, with “one day” for “8 days”
as §2

corn (Zea mays) [8] = experiment: Test G Pre-Emergence Protocol; conditions: evaluated after 13 days
Protocol: as §1, with “one day” for “8 days”
as §2

[9] = tested on: redroot pigweed (Amaranthus retroflexus); experiment: Test G Pre-Emergence Protocol; conditions: evaluated after 13 days
Protocol: as §1, with “one day” for “8 days”
as §2

[10] = tested on: giant foxtail (Setaria faberi); experiment: Test G Pre-Emergence Protocol; conditions: evaluated after 13 days
Protocol: as §1, with “one day” for “8 days”
as §2

[11] = tested on: ivy-leaved morning glory (Ipomoea hederacea); experiment: Test G Pre-Emergence Protocol; conditions: evaluated after 13 days; for Morningglory, Ivy-leaved damage rating (100=total damage to plant; 0=no damage to plant): 250 g ai/ha
Protocol: as §1, with “one day” for “8 days”
as §2

[12] = tested on: velvetleaf (Abutilon theophrasti); experiment: Test G Pre-Emergence Protocol; conditions: evaluated after 13 days
Protocol: as §1, with “one day” for “8 days”
as §2

[13] = 15.625 g ai/ha, evaluated after 13 days (100=total damage to plant; 0=no damage to plant)
[14] = 62.5 g ai/ha, evaluated after 13 days
[15] = 250 g ai/ha, evaluated after 13 days
[16] = 62.5 g ai/ha, 100=total damage to plant, 0=no damage to plant

COc1c(Cl)ccc([C@H]2CN(C)C(=O)[C@@H]2C(=O)Nc2cccc(F)c2F)c1F (racemic) [Compound 1476]
50: Corn damage rating (100=total damage to plant; 0=no damage to plant) (corn (Zea mays) [8]; 250 g ai/ha)
80: Barnyardgrass damage rating (100=total damage to plant; 0=no damage to plant) ([7]; 250 g ai/ha) | Foxtail, Giant damage rating (100=total damage to plant; 0=no damage to plant) ([10]; 250 g ai/ha)
0: Corn damage rating (100=total damage to plant; 0=no damage to plant) (corn (Zea mays) [8]; 15.625 g ai/ha) | Pigweed, Redroot damage rating (100=total damage to plant; 0=no damage to plant) ([9]; 15.625 g ai/ha) | Pigweed, Redroot damage rating (100=total damage to plant; 0=no damage to plant) ([9]; 250 g ai/ha) | Morningglory, Ivy-leaved damage rating (100=total damage to plant; 0=no damage to plant) [11] | Velvetleaf damage rating (100=total damage to plant; 0=no damage to plant) ([12]; 15.625 g ai/ha) | Velvetleaf damage rating (100=total damage to plant; 0=no damage to plant) ([12]; 250 g ai/ha)
20%: plant injury at 62.5 g/ha (corn (Zea mays) [2]; Zea mays, post-emergence, 312 h, 62.5 g ai/ha, evaluated after 13 days, read-out: Corn damage rating (100=total damage to plant; 0=no damage to plant)) | pest or weed control at 15.625 g/ha ([5]; Ipomoea, post-emergence, 312 h, 15.625 g ai/ha, evaluated after 13 days (100=total damage to plant; 0=no damage to plant), read-out: Morningglory, Ivy-leaved damage rating) | pest or weed control at 62.5 g/ha ([5]; Ipomoea, post-emergence, 312 h, 62.5 g ai/ha, evaluated after 13 days, read-out: Morningglory, Ivy-leaved damage rating (100=total damage to plant; 0=no damage to plant))
0%: pest or weed control at 62.5 g/ha ([3]; Amaranthus retroflexus, post-emergence, 312 h, 62.5 g ai/ha, evaluated after 13 days, read-out: Pigweed, Redroot damage rating (100=total damage to plant; 0=no damage to plant)) | pest or weed control at 62.5 g/ha ([6]; Abutilon theophrasti, post-emergence, 312 h, 62.5 g ai/ha, evaluated after 13 days, read-out: Velvetleaf damage rating (100=total damage to plant; 0=no damage to plant)) | plant injury at 62.5 g/ha (corn (Zea mays) [8]; Zea mays, pre-emergence, 312 h, 62.5 g ai/ha, 100=total damage to plant, 0=no damage to plant, read-out: plant damage rating, Corn) | pest or weed control at 62.5 g/ha ([9]; Amaranthus retroflexus, pre-emergence, 312 h, 62.5 g ai/ha, 100=total damage to plant, 0=no damage to plant, read-out: plant damage rating, Pigweed, Redroot) | pest or weed control at 15.625 g/ha ([11]; Ipomoea, pre-emergence, 312 h, 15.625 g ai/ha, read-out: Morning-glory, Ivy-leaved damage rating (100=total damage to plant; 0=no damage to plant)) | pest or weed control at 62.5 g/ha ([11]; Ipomoea, pre-emergence, 312 h, 62.5 g ai/ha, 100=total damage to plant, 0=no damage to plant, read-out: plant damage rating, Morningglory, Ivy-leaved) | pest or weed control at 62.5 g/ha ([12]; Abutilon theophrasti, pre-emergence, 312 h, 62.5 g ai/ha, 100=total damage to plant, 0=no damage to plant, read-out: plant damage rating, Velvetleaf)
80%: pest or weed control at 62.5 g/ha ([10]; Setaria faberi, pre-emergence, 312 h, 62.5 g ai/ha, 100=total damage to plant, 0=no damage to plant, read-out: plant damage rating, Foxtail, Giant)
50%: pest or weed control at 62.5 g/ha ([1]; Echinochloa crus-galli, post-emergence, 312 h, 62.5 g ai/ha, evaluated after 13 days, read-out: Barnyardgrass damage rating (100=total damage to plant; 0=no damage to plant))
40%: pest or weed control at 15.625 g/ha ([1]; Echinochloa crus-galli, post-emergence, 312 h, 15.625 g ai/ha, evaluated after 13 days (100=total damage to plant; 0=no damage to plant), read-out: Barnyardgrass damage rating)
70%: plant injury at 250 g/ha (corn (Zea mays) [2]; Zea mays, post-emergence, 312 h, 250 g ai/ha, evaluated after 13 days, read-out: damage to plant, Corn (100=total damage to plant; 0=no damage to plant)) | pest or weed control at 62.5 g/ha ([4]; Setaria faberi, post-emergence, 312 h, 62.5 g ai/ha, evaluated after 13 days, read-out: Foxtail, Giant damage rating (100=total damage to plant; 0=no damage to plant)) | pest or weed control at 250 g/ha ([4]; Setaria faberi, post-emergence, 312 h, 250 g ai/ha, evaluated after 13 days, read-out: damage to plant, Foxtail, Giant (100=total damage to plant; 0=no damage to plant)) | pest or weed control at 62.5 g/ha ([7]; Echinochloa crus-galli, pre-emergence, 312 h, 62.5 g ai/ha, 100=total damage to plant, 0=no damage to plant, read-out: plant damage rating, Barnyardgrass)
10%: plant injury at 15.625 g/ha (corn (Zea mays) [2]; Zea mays, post-emergence, 312 h, 15.625 g ai/ha, evaluated after 13 days (100=total damage to plant; 0=no damage to plant), read-out: Corn damage rating) | pest or weed control at 15.625 g/ha ([3]; Amaranthus retroflexus, post-emergence, 312 h, 15.625 g ai/ha, evaluated after 13 days (100=total damage to plant; 0=no damage to plant), read-out: Pigweed, Redroot damage rating) | pest or weed control at 250 g/ha ([3]; Amaranthus retroflexus, post-emergence, 312 h, 250 g ai/ha, evaluated after 13 days, read-out: damage to plant, Pigweed, Redroot (100=total damage to plant; 0=no damage to plant)) | pest or weed control at 15.625 g/ha ([6]; Abutilon theophrasti, post-emergence, 312 h, 15.625 g ai/ha, evaluated after 13 days (100=total damage to plant; 0=no damage to plant), read-out: Velvetleaf damage rating) | pest or weed control at 250 g/ha ([6]; Abutilon theophrasti, post-emergence, 312 h, 250 g ai/ha, evaluated after 13 days, read-out: damage to plant, Velvetleaf (100=total damage to plant; 0=no damage to plant))
70: Foxtail, Giant damage rating (100=total damage to plant; 0=no damage to plant) ([10]; 15.625 g ai/ha)
60%: pest or weed control at 250 g/ha ([1]; Echinochloa crus-galli, post-emergence, 312 h, 250 g ai/ha, evaluated after 13 days, read-out: damage to plant, Barnyardgrass (100=total damage to plant; 0=no damage to plant)) | pest or weed control at 15.625 g/ha ([4]; Setaria faberi, post-emergence, 312 h, 15.625 g ai/ha, evaluated after 13 days (100=total damage to plant; 0=no damage to plant), read-out: Foxtail, Giant damage rating) | pest or weed control at 250 g/ha ([5]; Ipomoea, post-emergence, 312 h, 250 g ai/ha, evaluated after 13 days, read-out: damage to plant, Morningglory, Ivy-leaved (100=total damage to plant; 0=no damage to plant)) | pest or weed control at 15.625 g/ha ([7]; Echinochloa crus-galli, pre-emergence, 312 h, 15.625 g ai/ha, read-out: Barnyard grass damage rating (100=total damage to plant; 0=no damage to plant))

COc1ccc([C@@H]2CN(C)C(=O)[C@H]2C(=O)Nc2ccccc2F)cc1[N+](=O)[O-] (racemic) [Compound 1417]
70: Foxtail, Giant damage rating (100=total damage to plant; 0=no damage to plant) [4, 14] | damage to plant, Foxtail, Giant (100=total damage to plant; 0=no damage to plant) [4, 15]
0: Corn damage rating (corn (Zea mays) [2]; [13]) | Foxtail, Giant damage rating [4, 13] | Morningglory, Ivy-leaved damage rating [5, 13] | Barnyardgrass damage rating (100=total damage to plant; 0=no damage to plant) ([7]; 15.625 g ai/ha) | Corn damage rating (100=total damage to plant; 0=no damage to plant) (corn (Zea mays) [8]; 15.625 g ai/ha) | plant damage rating, Corn (corn (Zea mays) [8]; [16]) | Corn damage rating (100=total damage to plant; 0=no damage to plant) (corn (Zea mays) [8]; 250 g ai/ha) | Pigweed, Redroot damage rating (100=total damage to plant; 0=no damage to plant) ([9]; 15.625 g ai/ha) | plant damage rating, Pigweed, Redroot [9, 16] | Foxtail, Giant damage rating (100=total damage to plant; 0=no damage to plant) ([10]; 15.625 g ai/ha) | Morning-glory, Ivy-leaved damage rating (100=total damage to plant; 0=no damage to plant) ([11]; 15.625 g ai/ha) | plant damage rating, Morningglory, Ivy-leaved [11, 16] | Velvetleaf damage rating (100=total damage to plant; 0=no damage to plant) ([12]; 15.625 g ai/ha) | plant damage rating, Velvetleaf [12, 16] | Velvetleaf damage rating (100=total damage to plant; 0=no damage to plant) ([12]; 250 g ai/ha)
10: Barnyardgrass damage rating [1, 13] | Corn damage rating (100=total damage to plant; 0=no damage to plant) (corn (Zea mays) [2]; [14]) | Pigweed, Redroot damage rating (100=total damage to plant; 0=no damage to plant) [3, 14] | Velvetleaf damage rating [6, 13]
40: Barnyardgrass damage rating (100=total damage to plant; 0=no damage to plant) [1, 14]
30: damage to plant, Pigweed, Redroot (100=total damage to plant; 0=no damage to plant) [3, 15] | damage to plant, Morningglory, Ivy-leaved (100=total damage to plant; 0=no damage to plant) [5, 15] | Pigweed, Redroot damage rating (100=total damage to plant; 0=no damage to plant) ([9]; 250 g ai/ha) | Morningglory, Ivy-leaved damage rating (100=total damage to plant; 0=no damage to plant) [11]
80: Barnyardgrass damage rating (100=total damage to plant; 0=no damage to plant) ([7]; 250 g ai/ha) | plant damage rating, Foxtail, Giant [10, 16]
60: damage to plant, Barnyardgrass (100=total damage to plant; 0=no damage to plant) [1, 15] | plant damage rating, Barnyardgrass [7, 16]
90: Foxtail, Giant damage rating (100=total damage to plant; 0=no damage to plant) ([10]; 250 g ai/ha)
20: damage to plant, Corn (100=total damage to plant; 0=no damage to plant) (corn (Zea mays) [2]; [15]) | Pigweed, Redroot damage rating [3, 13] | Morningglory, Ivy-leaved damage rating (100=total damage to plant; 0=no damage to plant) [5, 14] | Velvetleaf damage rating (100=total damage to plant; 0=no damage to plant) [6, 14] | damage to plant, Velvetleaf (100=total damage to plant; 0=no damage to plant) [6, 15]
